How the values were obtained:
castrated male ICR mice = test: In vivo mouse model of efficacy and selectivity (castrated mice, tissue wet weights); settings: for % Efficacy: (ANOVA, p < 0.05): Levator Ani muscle wet weight vs castrated vehicle-only control x100, 10 mg/kg/d, two weeks; for Seminal vesicle and/or prostate weight gain: tissue selectivity indicator, castrated mice
Procedure: Male ICR mice (8 weeks old) are castrated according to approved procedures (Taconic, N.Y.) and allowed to waste for eight weeks. Age-matched sham-operated mice are also prepared. (Sham-operated mice are animals that have been exposed to the same surgical procedures as castrated animals except their testes are not removed.) Animals are housed in a temperature-controlled room (24° C.) with a reversed 12 hour light/dark cycle (dark 10:00/22:00) and water and food are available ad libitum.
Test compounds are administered to the animals using conventional vehicles. For example, for oral dosing 1% Sodium Carboxymethylcellulose (CMC)+0.25% Tween 80 in sterile H2O can be used for oral formulation and 6% Ethyl-alcohol (EtOH)+94% cyclodexitrane (CDX) can be used for subcutaneous injections. Castrated mice treated with Testosteron Enanthate (TE) (10 mg/kg/d) are used as a treatment positive control whereas castrated mice treated only with vehicle are used as treatment negative control. In addition, sham-operated mice treated with vehicle only are used as control for the surgical method.
Test animals are dosed over a two week timeframe, orally or subcutaneously, with, for example, 0.3, 1, 3, 10 or 30 mg/kg/day of a compound of the present invention. After the two-week treatment, as an indicator of activity the wet weight of the Levator Ani muscle in the test group is determined and compared to the weight in the castrated, vehicle-only control group. The percent efficacy is then calculated as follows: (Wet weight in treatment group/Wet weight in control group)×100 As an indicator of tissue selective activity, the wet weight of the seminal vesicle from test animals is similarly compared to the weight of the seminal vesicles from the castrated, vehicle-only group. In addition, a comparison of the wet weight of the prostate glands from the drug-treated group, to the wet weight of the prostate glands removed from the castrated, vehicle-only group, may also be used as an indicator of tissue selective activity.
Table II (see below) provides % efficacy data for a select sample of exemplified compounds of the present invention in an animal model essentially as described above. Animal models of efficacy and selectivity similar to those described above can be readily designed and performed by the ordinarily skilled artisan, for example, Eisenberg and Gilbert, J Pharmacol Exp Ther. 1950, 99(1), 38-44, provides an alternative rat model that may be employed to show in vivo efficacy.)

[1] = biological target: T1, human AR (androgen receptor) (Homo sapiens, UniProt P10275); test: Steroid hormone nuclear receptor binding assay (AR binding); settings: AR binding Ki (nM), 293-AR cell lysate, 3H-methyltrienolone competition
T1 construct: expressed in transfected cells; host or cells: 293 cells (293-AR lysate)
T1 sequence (P10275 1-920): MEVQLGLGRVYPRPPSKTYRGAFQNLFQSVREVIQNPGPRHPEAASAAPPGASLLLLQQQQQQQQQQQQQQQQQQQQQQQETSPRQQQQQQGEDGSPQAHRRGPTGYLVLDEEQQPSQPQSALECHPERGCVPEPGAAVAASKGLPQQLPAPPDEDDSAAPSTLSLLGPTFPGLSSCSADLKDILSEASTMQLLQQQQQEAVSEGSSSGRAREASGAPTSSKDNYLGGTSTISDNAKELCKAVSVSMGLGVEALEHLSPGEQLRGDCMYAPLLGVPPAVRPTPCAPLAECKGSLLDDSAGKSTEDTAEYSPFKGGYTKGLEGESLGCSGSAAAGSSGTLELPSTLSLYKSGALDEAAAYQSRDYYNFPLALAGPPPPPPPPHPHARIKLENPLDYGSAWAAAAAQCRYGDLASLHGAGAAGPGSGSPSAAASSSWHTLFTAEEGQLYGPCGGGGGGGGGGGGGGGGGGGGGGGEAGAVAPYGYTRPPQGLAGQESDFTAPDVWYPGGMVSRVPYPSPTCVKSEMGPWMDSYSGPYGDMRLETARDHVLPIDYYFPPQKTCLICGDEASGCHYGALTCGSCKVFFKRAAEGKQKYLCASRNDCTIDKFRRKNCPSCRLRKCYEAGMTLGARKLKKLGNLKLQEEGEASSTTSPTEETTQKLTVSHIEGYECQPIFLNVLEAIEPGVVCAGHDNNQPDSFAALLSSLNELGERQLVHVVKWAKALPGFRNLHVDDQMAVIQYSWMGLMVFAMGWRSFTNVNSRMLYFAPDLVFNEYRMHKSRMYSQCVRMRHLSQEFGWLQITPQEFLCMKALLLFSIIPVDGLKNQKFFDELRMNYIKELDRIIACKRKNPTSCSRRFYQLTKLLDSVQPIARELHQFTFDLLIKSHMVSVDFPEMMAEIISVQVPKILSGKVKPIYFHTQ
Procedure: Cell lysates from 293 cells overexpressing human GR (glucocorticoid receptor), AR (androgen receptor), MR (mineralocorticoid receptor) or PR (progesterone receptor) are used for competition binding assays to determine Ki values for test compounds. Briefly, competition binding assays are run in a buffer containing 20 mM Hepes, pH 7.6, 0.2 mM EDTA, 75 mM NaCl, 1.5 mM MgCl2, 20% glycerol, 20 mM sodium molybdate, 0.2 mM DTT, 20 ug/ml aprotinin and 20 ug/ml leupeptin, using either 0.3 nM ^3H-dexamethasone for GR binding, 0.36 nM ^3H-methyltrienolone for AR binding, 0.25 nM ^3H-aldosterone for MR binding, or 0.29 nM ^3H-methyltrienolone for PR binding, and either 20 ug 293-GR lysate, 22 ug 293-AR lysate, 20 ug 293-MR lysate or 40 ug 293-PR lysate per well. Competing compounds are added at various concentrations ranging from about 0.01 nM to 10 μM. Non-specific binding is determined in the presence of 500 nM dexamethasone for GR binding, 500 nM aldosterone for MR binding, or 500 nM methyltrienolone for AR and PR binding. The binding reaction (140 μl) is incubated for overnight at 4° C., then 70 μl of cold charcoal-dextran buffer (containing per 50 ml of assay buffer, 0.75 g of charcoal and 0.25 g of dextran) is added to each reaction. Plates are mixed 8 minutes on an orbital shaker at 4° C. Plates are then centrifuged at 3,000 rpm at 4° C. for 10 minutes. An aliquot of 120 μl of the mix is transferred to another 96-well plate and 175 μl of Wallac Optiphase “Hisafe 3” scintillation fluid is added to each well. Plates are sealed and shaken vigorously on an orbital shaker. After an incubation of 2 hrs, plates are read in a Wallac Microbeta counter. The data is used to calculate an IC50 and % Inhibition at 10 μM. The Kd for ^3H-dexamethasone for GR binding, ^3H-methyltrienolone for AR binding, ^3H-aldosterone for MR binding, or ^3H-methyltrienolone for PR binding, is determined by saturation binding. The IC50 values for test compounds are converted to Ki using Cheng-Prusoff equation and the Kd determined by saturation binding assay.
Binding assay protocols for steroid hormone nuclear receptors similar to those described above can be readily designed by the ordinarily skilled artisan.

[2] = biological target: T2, human androgen receptor (AR) (Homo sapiens, UniProt P10275); test: C2C12 AR/ARE reporter assay; format: cell-based; settings: average; for Emax: C2C12, read-out: C2C12 % Efficacy, versus maximum stimulation obtained with 10 nM methyltrienolone; for EC50: C2C12 EC50(nM), mouse myoblast C2C12 cells, luciferase reporter, 48 h
T2 construct: expressed in transfected cells; host or cells: mouse myoblast C2C12 cells, transiently co-transfected with FuGENE
T2 sequence (P10275 1-920): T1 sequence (P10275 1-920)
Procedure: As an indicator of agonist activity in muscle tissue, the C2C12 AR/ARE reporter assay is performed. Briefly, mouse myoblast C2C12 cells are co-transfected using FuGENE™. […] Cells are transfected in T150 cm^2 flasks in DMEM media with 4% or 10% Fetal Bovine Serum (FBS). After a 5 hour incubation, transfected cells are trypsinized, plated in 96 well dishes in DMEM media containing 10% charcoal-stripped FBS, incubated for 2 h and then exposed to various concentrations of test compounds ranging from about 0.01 nM to 10 μM. After 48 h of incubations with compounds, cells are lysed and luciferase activity is determined using standard techniques. Data is fit to a 4 parameter-fit logistics to determine EC50 values. The % efficacy is determined versus maximum stimulation obtained with 10 nM methyltrienolone. […]

Structure (SMILES)	% Efficacy: (ANOVA, p < 0.05) (castrated male ICR mice; sc) [%]	Seminal vesicle and/or prostate weight gain (castrated male ICR mice)	Ki [1] [nM]	Emax [2] [%]	EC50 [2] [nM]	% Efficacy: (ANOVA, p < 0.05) (castrated male ICR mice; po) [%]
Cc1c(N2CCCC2c2cccnc2)ccc(C#N)c1Cl (stereo not shown) [Example 9]	186	no weight gain	1.3	90.7	2.6	
Cc1c(N2CCCC2c2ccc3c(c2)OCO3)ccc(C#N)c1Cl (stereo not shown) [Example 12]		no weight gain	2.2	95.6	12.4	164
Cc1nnc(C2CCCN2c2ccc(C#N)c(Cl)c2C)[nH]1 (stereo not shown) [Example 29, 2-chloro-3-methyl-4-[2-(5-methyl-4H-1,2,4-triazol-3-yl)pyrrolidin-1-yl]benzonitrile]			58.9	83.9	378	
Cc1c(N2CCCC2c2nnc(N)o2)ccc(C#N)c1Cl (stereo not shown) [Example 30, 4-[2-(5-amino-1,3,4-oxadiazol-2-yl)pyrrolidin-1-yl]-2-chloro-3-methylbenzonitrile]			18.7	95.7	37.9	
Cc1c(N2CC(O)CC2c2ccccc2)ccc(C#N)c1Cl (stereo not shown) [Example 31, 2-Chloro-3-methyl-4-(4-hydroxy-2-phenyl-pyrrolidin-1-yl)-benzonitrile]			8.3	91.6	20.7	

Source: US7807691B2, “Substituted N-arylpyrrolidines as selective androgen receptor modulators” (Eli Lilly and Company, priority 2005, dated 2010)
